Results from US11006626B2, “Compounds for protection of cells” (Sulfateq B.V., priority 2012, dated 2021).

Key:
[1] = test system: apherese blood platelets; experiment: Apheresis platelets stored with Sul 136, platelet activation with ADP and TRAP by flow cytometry (CD62p); format: cell-based; parameters: Flow cytometry ADP / Flow cytometry TRAP: unit not given here; conditions: for Flow cytometry ADP / Flow cytometry P-selectin MFI / Flow cytometry TRAP: stored at 4° C. with Sul 136
Description: 300 μM suspension of Sul 136 is added with a procedure, which keeps the bag content sterile and the Sul 136 is kept in suspension by frequent whirling and stored at 37° C. before it is added to the freshly harvested platelets. The Sul 136 suspension is added to three platelet bags directly from the bag. After addition, the content of the platelet bag is gently mixed. After 2 hours the first sample is drawn with a seal-docked sample bag. The sample bag is disconnected by welding and from this sample bag the samples are taken for hematology analyzing, aggregometer tests and the flow-cytometry tests. Swirling in the bag is reported by experience of the laboratory worker in the standard format. Platelets without Sul 136 put on a flatbed shaker and stored at room temperature were used as control. Another control is stored at 4° C. Platelet samples in which Sul 136 is added, are stored without shaking in a refrigerator at 4° C.
Platelet activation was performed on a Beckman Coulter FC 500 flowcytometer using CD 41 PE, CD 62p FITC, IgG1 FITC/IgG1 PE antibodies of a Beckman Coulter kit.
40 μl Dilution buffer was brought in about 15 minutes to 37° C.; 10 μl IgG FITC/IgG PE+10 μl CD41 PE was added and mixed with Vortex, incubated 5 min at room temperature; 1000 μl cold HBSS buffer was added; measurement in flowcytometer was performed.
40 μl Dilution buffer was brought in about 15 minutes to 37° C.; 10 μl CD41 PE+5 μl CD62 FITC was added and mixed with Vortex, incubated during 5 min. at room temperature; 1000 μl cold HBSS buffer was added; measurement in flowcytometer was performed.
36 μl Dilution buffer+4 μl ADP was brought in about 15 minutes to 37° C.; 10 μl CD41 PE+5 μl CD62 FITC was added and mixed with Vortex, incubated during 5 min. at room temperature; 1000 μl cold HBSS buffer was added; measurement in flowcytometer was performed.
36 μl Dilution buffer+4 μl TRAP was brought in about 15 minutes to 37° C.; 10 μl CD41 PE+5 μl CD62 FITC was added and mixed with Vortex; incubateed during 5 min. at room temperature; 1000 μl cold HBSS buffer was added; measurement in flowcytometer was performed.

[2] = test system: PRP platelets; experiment: PRP platelets stored with Sul 136, aggregation after stimulation with collagen; format: cell-based; parameters: key: +means that the cells show aggregation and can thus be activated upon stimulation; −means no aggregation upon stimulation
Description: […] • The color and coagulation properties were visually analysed. • The thrombocyte cells that survived were counted and it was evaluated whether the thrombocytes were aggregated. • It was evaluated if the thrombocytes still were able to function after stimulation by the addition of ADP or under influence of collagen in a 96 well plate. • The adhesion was evaluated, meaning the ability of the platelets to bind collagen in a 6 well plate preincubated with collagen. • Via an ELISA assay, it was evaluated whether thromboxane was secreted from the platelets. Thromboxane facilitates aggregation and is produced by activated blood platelets.
(+means that the cells show aggregation, ++means strong aggregation, these platelets can thus be activated upon stimulation, −means no aggregation upon stimulation)

Cc1c(C)c2c(c(C)c1O)CCC(C)(C(=O)N1CCN(CC(=O)O)CC1)O2 (racemic) [SUL - 136, 2-(4-(6-hydroxy-2,5,7,8-tetramethylchroman-2-carbonyl)piperazin-1-yl)acetic acid]
Flow cytometry ADP ([1]; Donor 2, Day 1): 2.12
Flow cytometry P-selectin MFI ([1]; Donor 2, Day 1): 1.67 MFI
Flow cytometry TRAP ([1]; Donor 2, Day 1): 1.88
Flow cytometry ADP ([1]; Donor 2, Day 2): 2.53
Flow cytometry P-selectin MFI ([1]; Donor 2, Day 2): 2.13 MFI
Flow cytometry TRAP ([1]; Donor 2, Day 2): 2.35
Flow cytometry ADP ([1]; Donor 2, Day 3): 3.21
Flow cytometry P-selectin MFI ([1]; Donor 2, Day 3): 2.59 MFI
Flow cytometry TRAP ([1]; Donor 2, Day 3): 2.76
Flow cytometry ADP ([1]; Donor 2, Day 5): 3.19
Flow cytometry P-selectin MFI ([1]; Donor 2, Day 5): 2.95 MFI
Flow cytometry TRAP ([1]; Donor 2, Day 5): 3.16
Flow cytometry ADP ([1]; Donor 2, Day 8): 3.08
Flow cytometry P-selectin MFI ([1]; Donor 2, Day 8): 2.99 MFI
Flow cytometry TRAP ([1]; Donor 2, Day 8): 3.22
Flow cytometry ADP ([1]; Donor 2, Day 10): 2.83
Flow cytometry P-selectin MFI ([1]; Donor 2, Day 10): 2.76 MFI
Flow cytometry TRAP ([1]; Donor 2, Day 10): 2.96
Flow cytometry ADP ([1]; Donor 2, Day 12): 2.62
Flow cytometry P-selectin MFI ([1]; Donor 2, Day 12): 2.63 MFI
Flow cytometry TRAP ([1]; Donor 2, Day 12): 2.73
Flow cytometry ADP ([1]; Donor 2, Day 19): 1.99
Flow cytometry P-selectin MFI ([1]; Donor 2, Day 19): 2.01 MFI
Flow cytometry TRAP ([1]; Donor 2, Day 19): 2.14
Flow cytometry ADP ([1]; Donor 3, Day 1): 2.71
Flow cytometry P-selectin MFI ([1]; Donor 3, Day 1): 1.90 MFI
Flow cytometry TRAP ([1]; Donor 3, Day 1): 2.08
Flow cytometry ADP ([1]; Donor 3, Day 2): 3.49
Flow cytometry P-selectin MFI ([1]; Donor 3, Day 2): 2.82 MFI
Flow cytometry TRAP ([1]; Donor 3, Day 2): 3.62
Flow cytometry ADP ([1]; Donor 3, Day 3): 4.96
Flow cytometry P-selectin MFI ([1]; Donor 3, Day 3): 3.84 MFI
Flow cytometry TRAP ([1]; Donor 3, Day 3): 4.42
Flow cytometry ADP ([1]; Donor 3, Day 5): 4.84
Flow cytometry P-selectin MFI ([1]; Donor 3, Day 5): 4.50 MFI
Flow cytometry TRAP ([1]; Donor 3, Day 5): 5.04
Flow cytometry ADP ([1]; Donor 3, Day 8): 4.91
Flow cytometry P-selectin MFI ([1]; Donor 3, Day 8): 4.82 MFI
Flow cytometry TRAP ([1]; Donor 3, Day 8): 5.24
Flow cytometry ADP ([1]; Donor 3, Day 10): 4.25
Flow cytometry P-selectin MFI ([1]; Donor 3, Day 10): 4.37 MFI
Flow cytometry TRAP ([1]; Donor 3, Day 10): 5.04
Flow cytometry ADP ([1]; Donor 3, Day 12): 3.84
Flow cytometry P-selectin MFI ([1]; Donor 3, Day 12): 3.89 MFI
Flow cytometry TRAP ([1]; Donor 3, Day 12): 4.20
Flow cytometry ADP ([1]; Donor 3, Day 19): 2.37
Flow cytometry P-selectin MFI ([1]; Donor 3, Day 19): 2.22 MFI
Flow cytometry TRAP ([1]; Donor 3, Day 19): 2.01
Flow cytometry ADP ([1]; donor 1, Day 1): 3.07
Flow cytometry P-selectin MFI ([1]; donor 1, Day 1): 2.09 MFI
Flow cytometry TRAP ([1]; donor 1, Day 1): 3.57
Flow cytometry ADP ([1]; donor 1, Day 2): 3.28
Flow cytometry P-selectin MFI ([1]; donor 1, Day 2): 3.04 MFI
Flow cytometry TRAP ([1]; donor 1, Day 2): 3.78
Flow cytometry ADP ([1]; donor 1, Day 3): 4.12
Flow cytometry P-selectin MFI ([1]; donor 1, Day 3): 3.73 MFI
Flow cytometry TRAP ([1]; donor 1, Day 3): 4.95
Flow cytometry ADP ([1]; donor 1, Day 5): 4.20
Flow cytometry P-selectin MFI ([1]; donor 1, Day 5): 4.12 MFI
Flow cytometry TRAP ([1]; donor 1, Day 5): 5.55
Flow cytometry ADP ([1]; donor 1, Day 8): 4.83
Flow cytometry P-selectin MFI ([1]; donor 1, Day 8): 4.82 MFI
Flow cytometry TRAP ([1]; donor 1, Day 8): 5.52
Flow cytometry ADP ([1]; donor 1, Day 10): 4.46
Flow cytometry P-selectin MFI ([1]; donor 1, Day 10): 4.48 MFI
Flow cytometry TRAP ([1]; donor 1, Day 10): 5.52
Flow cytometry ADP ([1]; donor 1, Day 12): 4.43
Flow cytometry P-selectin MFI ([1]; donor 1, Day 12): 4.57 MFI
Flow cytometry TRAP ([1]; donor 1, Day 12): 4.42
Flow cytometry ADP ([1]; donor 1, Day 19): 2.74
Flow cytometry P-selectin MFI ([1]; donor 1, Day 19): 2.92 MFI
Flow cytometry TRAP ([1]; donor 1, Day 19): 2.76
flow cytometry tests ([1]; stored at 4° C. with compound vs. platelets stored at room temperature): similar
aggregation of the PRP platelets after stimulation with collagen ([2]; 10 min 0.001 mM, 24 h): −
aggregation of the PRP platelets after stimulation with collagen ([2]; 10 min 0.001 mM, 48 h): −
aggregation of the PRP platelets after stimulation with collagen ([2]; 10 min 0.001 mM, 72 h): −
aggregation of the PRP platelets after stimulation with collagen ([2]; 10 min 0.001 mM, 216 h): −
aggregation of the PRP platelets after stimulation with collagen ([2]; 10 min 0.01 mM, 24 h): −
aggregation of the PRP platelets after stimulation with collagen ([2]; 10 min 0.01 mM, 48 h): −
aggregation of the PRP platelets after stimulation with collagen ([2]; 10 min 0.01 mM, 72 h): −
aggregation of the PRP platelets after stimulation with collagen ([2]; 10 min 0.01 mM, 216 h): −
aggregation of the PRP platelets after stimulation with collagen ([2]; 10 min 0.1 mM, 48 h): −
aggregation of the PRP platelets after stimulation with collagen ([2]; 10 min 0.1 mM, 72 h): −
aggregation of the PRP platelets after stimulation with collagen ([2]; 10 min 0.1 mM, 216 h): −
aggregation of the PRP platelets after stimulation with collagen ([2]; 10 min 1 mM, 48 h): −
aggregation of the PRP platelets after stimulation with collagen ([2]; 60 min 0.001 mM, 24 h): −
aggregation of the PRP platelets after stimulation with collagen ([2]; 60 min 0.001 mM, 48 h): −
aggregation of the PRP platelets after stimulation with collagen ([2]; 60 min 0.001 mM, 72 h): −
aggregation of the PRP platelets after stimulation with collagen ([2]; 60 min 0.001 mM, 216 h): −
aggregation of the PRP platelets after stimulation with collagen ([2]; 60 min 0.01 mM, 24 h): −
aggregation of the PRP platelets after stimulation with collagen ([2]; 60 min 0.01 mM, 48 h): −
aggregation of the PRP platelets after stimulation with collagen ([2]; 60 min 0.01 mM, 72 h): −
aggregation of the PRP platelets after stimulation with collagen ([2]; 60 min 0.01 mM, 216 h): −
aggregation of the PRP platelets after stimulation with collagen ([2]; 60 min 0.1 mM, 24 h): −
aggregation of the PRP platelets after stimulation with collagen ([2]; 60 min 0.1 mM, 48 h): −
aggregation of the PRP platelets after stimulation with collagen ([2]; 60 min 0.1 mM, 72 h): −
aggregation of the PRP platelets after stimulation with collagen ([2]; 60 min 0.1 mM, 216 h): −
aggregation of the PRP platelets after stimulation with collagen ([2]; 60 min 1 mM, 24 h): −
aggregation of the PRP platelets after stimulation with collagen ([2]; 60 min 1 mM, 48 h): −
aggregation of the PRP platelets after stimulation with collagen ([2]; 60 min 1 mM, 72 h): −
aggregation of the PRP platelets after stimulation with collagen ([2]; 60 min 10 mM, 216 h): −
